Test results from patent publication US20220041681A1 (MEDIMMUNE LIMITED, priority 2016, published 2022).
≈ marks a conversion by molar mass, not a printed value. Like-named read-outs stand apart in the source and are kept apart here. Numbered stars: 1 amine (or outer) side, 2 acyl side, 3 side chain; on linkers, the order of the positions; unused ones are H or OH. Side chains are listed from the residue outwards. Peptide text beside a SMILES is read from it. * marks the point of attachment. γGlu = O=C(O)[C@H](CCC(=O)[*:2])N[*:1]; Palmitoyl = CCCCCCCCCCCCCCCC(=O)*

How the values were obtained:
[1] = biological target: T1, Rat GlucR (Rattus norvegicus, UniProt P30082); assay: cAMP assay in presence of serum albumin (assay 2), 3.2% rat serum albumin; format: cell-based; details: relative potencies vs native ligands
T1 construct: expressed in transfected cells
Experimental: CHO cells with stable recombinant expression of the human, mouse or rat GlucR or GLP-t receptor were cultured in DMEM 10% FBS and geneticin (100 μg/mil). Cryopreserved cell stocks were prepared in 1× cell freezing medium-DMSO serum free (Sigma Aldrich) at 2×10^7/vial and stored at […]. […] Peptides were serially diluted in DMSO and then diluted 100 fold into DMEM containing serum albumin at stated final concentration. […] Cells were added to the assay plates and incubated for 30 min at room temperature. Following incubation the assay was stopped and cAMP levels measured using the HTRF® dynamic d2 cAMP assay kit available from CisBio Bioassays, as per the manufacturer's guidelines. Plates were read on Perkin Elmer ENVISION® fluorescence plate readers. Human and rat serum albumin were purchased from Sigma Aldrich and mouse serum albumin from Equitech Bio Ltd.

[2] = biological target: human serum albumin (Homo sapiens, UniProt P02768); assay: Fraction of free peptide calculated from variation in cAMP generation with HSA concentration; details: calculated from cAMP generation vs HSA concentration
Text: Data was transformed to % Delta F as described in manufacturer's guidelines and analysed by 4-parameter logistic fit to determine EC50 values. […] To compare the balance of activities at the GLP1R and GlucR between different peptides and across different conditions, these can be correlated using the calculation below, where the EC50's are related to those of the natural ligands.

[3] = Stability testing of peptides in plasma; format: in vitro ADME, mouse
Experimental: (§1) Stability testing of peptides in plasma.
(§2) Stock solutions of the peptides of about 200 μmol/L was prepared by weighing solid peptide into a Eppendorf Low Bind Tube and dissolved in DMSO. 10 μL of stock solutions were added to 990 μL of plasma in an Eppendorf Low Bind Tube, resulting in initial concentrations of the peptides in plasma of about 2 μmol/L. The frozen blank plasma from human, rat and mouse had been thawed and heated to a temperature of 37° C. before addition of the stock solution. The spiked plasma samples were gently mixed and allowed to equilibrate for about 5 minutes before start of experiment. The plasma samples were incubated for 48 hours in a GalaxyR CO2 incubator at 37° C. Sampling (30 μL) was performed at 0, 1, 2, 6.5, 17, 24 and 48 hours. The samples were stored at −70° C. until analysis.
(§3) Plasma samples were assayed as follows. The 30 μL plasma samples were protein precipitated with […] of cold ethanol in a 96-well low bind plate (Eppendorf Protein LoBind). After mixing and centrifugation, 100 μl the supernatant was transferred to a new plate and 1 μl was injected onto an analytical column.
(§4) The analysis was performed using a μLC-system (LC Exigent μLC) coupled to a medium high resolution mass spectrometer (Perkin Elmer PenTOF) with positive electrospray ionisation. The analytical column was a 5 cm, 1 mm Agilent Poroshell (custom made) C18-column with a particle size of 2.7 μm. Flow: 0.1 ml/min using a slow reversed phase gradient. Mobile phases used were acetonitrile and water containing 0.1% formic acid.
The resulting data were manually evaluated for the following degradation products: +1 product (acid) and the DPP IV-cleavage product. Products with +1 mass may arise from deamidation at amide groups of glutamine or at the C-terminus. Cleavage products arise from the action of the protease DPP IV in plasma. Both the degradation of the peptides and formation of peptide products were reported in percentage of the initial peptide concentration. Peaks were integrated and % remaining peptide was calculated: (peak area/peak area 0H)*100. […]

[4] = format: in vitro ADME, human
Experimental: as §1, §2, §3, §4
The resulting data were manually evaluated for the following degradation products: +1 product (acid) and the DPP IV-cleavage product. Products with +1 mass may arise from deamidation at amide groups of glutamine or at the C-terminus. Cleavage products arise from the action of the protease DPP IV in plasma. Both the degradation of the peptides and formation of peptide products were reported in percentage of the initial peptide concentration. Peaks were integrated and % remaining peptide was calculated: (peak area/peak area 0H)*100. Levels of deamidation and DPP IV cleavage were low for G797 and G933.

[5] = format: in vitro ADME, rat
Experimental: as §1, §2
as §3, with “column. […]” for “column.”
The resulting data were manually evaluated for the following degradation products: +1 product (acid) and the DPP IV-cleavage product. […] Peaks were integrated and % remaining peptide was calculated: (peak area/peak area 0H)*100. […]

[6] = Peptide solubility in buffers (A280); format: physicochemical; details: target 1 mg/ml, read-out: Conc. (A280), solubility
Text: G7310 was soluble in a pH range of 4.5 to 8.0.

[7] = test system: diet induced obesity (DIO) mouse model; assay: Diet induced obesity (DIO) mouse model, study A; format: in vivo; details: for BeHy / Insulin / Plasma NEFA: day 14
Text: Female C57/Bl6JHsdOla (obtained from Harlan Laboratories. UK) were started on a high fat diet of D12492 (Research Diets, NJ, USA) and a chocolate confection, delicato ball (Delicata Bakverk, Sweden) at 9-11 weeks of age, and were maintained on the diet for 16 weeks prior to arrival to the animal facility, during a three week acclimation period and during drug treatment, caloric content of the two components of the diet is shown in Table 11. The mice were divided into 9 groups (n=5-6), and treatment was started at 29 weeks of age.
The body weight of the animals was monitored daily throughout die dosing period. At day 14, blood samples for the measurement of plasma glucose and insulin from conscious mice were obtained after a 4-hour fasting period. Mice were then anaesthetized using isofluorane and terminal blood was collected from the capillary bed behind the eye. The following parameters were measured: blood chemistry measurements of triglycerides, total cholesterol, non-esterified fatty acids (NEFA), beta-hydroxybutyrate and fibroblast growth factor 21 (FGF21) (Tables 14 and 15 below).

[8] = Peptide solubility in isotonic formulations (DF, BF1, BF2); details: formulation DF (DF/BF1 for G797)
Experimental: Formulations. Peptide solubility was assessed in three different isotonic formulations: • 1. […] Final formulation pH=7.2 • 2. Back up formulation 1 (BF1)=0.05M Tris, 50 nM Arginine/Proline. Final formulation pH=8.0 • 3. […] Final formulation pH=7.0

Chain of human serum albumin (P02768 25-609): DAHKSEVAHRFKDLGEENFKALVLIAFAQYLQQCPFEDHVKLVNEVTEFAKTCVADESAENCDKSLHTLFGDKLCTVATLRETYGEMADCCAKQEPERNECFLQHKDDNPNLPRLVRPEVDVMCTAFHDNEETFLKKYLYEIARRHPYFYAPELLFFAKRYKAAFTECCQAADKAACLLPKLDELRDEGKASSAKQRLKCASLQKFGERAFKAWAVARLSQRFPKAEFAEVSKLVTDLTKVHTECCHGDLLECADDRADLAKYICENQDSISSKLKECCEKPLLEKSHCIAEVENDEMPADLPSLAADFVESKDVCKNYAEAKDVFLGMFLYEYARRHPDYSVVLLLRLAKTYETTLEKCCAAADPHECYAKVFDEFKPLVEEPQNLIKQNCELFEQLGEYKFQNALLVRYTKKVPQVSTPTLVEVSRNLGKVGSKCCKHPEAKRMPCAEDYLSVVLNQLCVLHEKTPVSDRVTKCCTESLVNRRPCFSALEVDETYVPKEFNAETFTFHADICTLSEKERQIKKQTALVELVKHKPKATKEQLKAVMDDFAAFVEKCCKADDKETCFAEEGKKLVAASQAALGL
T1 sequence (P30082 27-485): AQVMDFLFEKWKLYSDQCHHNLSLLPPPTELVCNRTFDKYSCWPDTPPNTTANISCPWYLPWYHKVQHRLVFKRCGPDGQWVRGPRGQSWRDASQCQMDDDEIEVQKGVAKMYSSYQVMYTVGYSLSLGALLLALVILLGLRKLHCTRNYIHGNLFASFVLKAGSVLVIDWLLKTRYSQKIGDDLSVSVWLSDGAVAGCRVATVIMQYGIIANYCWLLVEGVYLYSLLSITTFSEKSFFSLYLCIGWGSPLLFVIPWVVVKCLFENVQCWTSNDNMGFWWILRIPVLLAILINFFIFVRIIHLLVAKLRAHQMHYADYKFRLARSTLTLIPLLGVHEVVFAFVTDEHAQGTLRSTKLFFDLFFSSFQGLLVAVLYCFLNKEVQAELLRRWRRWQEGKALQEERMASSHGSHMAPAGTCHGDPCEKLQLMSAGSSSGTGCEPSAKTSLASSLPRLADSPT

For CCCCCCCCCCCCCCCC(=O)N[C@@H](CCC(=O)NCCCC[C@H](NC(=O)[C@H](CCCCN)NC(=O)[C@H](CO)NC(=O)[C@H](Cc1ccc(O)cc1)NC(=O)[C@H](CC(=O)O)NC(=O)[C@H](CO)NC(=O)[C@@H](NC(=O)[C@H](Cc1ccccc1)NC(=O)[C@@H](NC(=O)CNC(=O)[C@H](CCC(N)=O)NC(=O)[C@H](CO)NC(=O)[C@@H](N)Cc1c[nH]cn1)[C@@H](C)O)[C@@H](C)O)C(=O)N[C@@H](CC(C)C)C(=O)N[C@@H](CC(=O)O)C(=O)N[C@@H](CO)C(=O)N[C@@H](CCC(=O)O)C(=O)N[C@@H](CCCNC(=N)N)C(=O)N[C@@H](C)C(=O)N[C@@H](CCCNC(=N)N)C(=O)N[C@@H](CC(=O)O)C(=O)N[C@@H](Cc1ccccc1)C(=O)N[C@H](C(=O)N[C@@H](C)C(=O)N[C@@H](Cc1c[nH]c2ccccc12)C(=O)N[C@@H](CC(C)C)C(=O)N[C@H](C(=O)N[C@@H](C)C(=O)NCC(=O)NCC(N)=O)C(C)C)C(C)C)C(=O)O [Peptide G730] (H-HSQGTFTSDYSKK([γGlu-Palmitoyl])LDSERARDFVAWLVAGG-NH2; N-terminus assumed), the “Rat GlucR/GLP1R Ratio” value [1] was 0.05, the “free peptide at 4.4% HSA” value [2] was 0.85% and the “% +1 prod” value [3] was 15%. The “% stable peptide” value ([3]; mouse plasma, 37° C., 24 h) was 65%, the “% +1 prod” value [4] was less than 1% and the “% DPP cleaved product/+1 DPP cleaved product” value [4] was less than 1%. For the same compound, the “% DPP cleaved product/+1 DPP cleaved product” value [5] was 2%, the solubility ([6]; Tris buffer, Tris pH 7.5, 100 mM) was 830 µg/mL (≈ 225 µM) and the solubility ([6]; Tris buffer, Tris pH 8.0, 100 mM) was 1100 µg/mL (≈ 298 µM). The solubility ([6]; glutamate buffer, Glutamate pH 4.5, 100 mM) was 830 µg/mL (≈ 225 µM), the solubility ([6]; phosphate buffer, Phosphate pH 6, 100 mM) was 140 µg/mL (≈ 37.9 µM) and the solubility ([6]; phosphate buffer, Phosphate pH 6.5, 100 mM) was 830 µg/mL (≈ 225 µM). The solubility ([6]; phosphate buffer, Phosphate pH 7.5, 100 mM) was 850 µg/mL (≈ 230 µM), the BeHy ([7]; 10 nmol/kg) was 426 u mol/l and the Insulin ([7]; 10 nmol/kg) was 0.4 nM. The “Plasma NEFA” value ([7]; 10 nmol/kg) was 0.28 Mm, the BeHy ([7]; 20 nmol/kg) was 750 u mol/l and the Insulin ([7]; 20 nmol/kg) was 0.2 nM. For the same compound, the “Plasma NEFA” value ([7]; 20 nmol/kg) was 0.26 Mm, the BeHy ([7]; 50 nmol/kg) was 1477 u mol/l and the Insulin ([7]; 50 nmol/kg) was 0.3 nM. The “Plasma NEFA” value ([7]; 50 nmol/kg) was 0.32 Mm, the “body weight over the 14 day dosing period” value ([7]; study A, in words) was “dose dependent and continuous weight loss” and the “glucose levels at day 14” value ([7]; study A, in words) was “dose-dependent reduction in glucose levels”. The “Formulation Concentration” value [8] was 5 mg/mL.
